According to ChEMBL document CHEMBL3813672, “Discovery of anti-cancer activity for benzo[1,2,4]triazin-7-ones: Very strong correlation to pleurotin and thioredoxin reductase inhibition” (Bioorg Med Chem, 2016):

What was measured:
[1] = Cytotoxicity against human DU145 cells assessed as reduction in cell viability after 72 hrs by MTT assay; type: functional, cell-based; settings: DU-145, 72 h
[2] = tested on: MCF7; test: Cytotoxicity against human MCF7 cells assessed as reduction in cell viability after 72 hrs by MTT assay; type: functional, cell-based; settings: MCF7, 72 h
[3] = Cytotoxicity against human GM00637 cells assessed as reduction in cell viability after 72 hrs by MTT assay; type: cell-based; settings: GM00637, 72 h
[4] = Inhibition of recombinant human TRX1/human placental thioredoxin reductase using DTNB as substrate in presence of NADPH by spectrophotometric method
[5] = molecular target: Thioredoxin reductase (Homo sapiens, UniProt Q16881+Q9NNW7+Q86VQ6); test: Irreversible inhibition of thioredoxin reductase (unknown origin); type: protein assay

SMILES: COc1cc2nc(-c3ccccc3)nn(-c3ccccc3)c-2cc1=O
- IC50 [1]: > 5000 nM
- IC50 [2]: > 5000 nM
- IC50 [3]: > 5000 nM

SMILES: CCN(CC)c1cc2nc(-c3ccccc3)nn(-c3ccccc3)c-2cc1=O
- IC50 [1]: 3110 nM
- IC50 [2]: > 5000 nM
- IC50 [3]: 2730 nM

SMILES: O=c1cc2n(-c3ccccc3)nc(-c3ccccc3)nc-2cc1N1CCCC1
- IC50 [1]: 2460 nM
- IC50 [2]: 360 nM
- IC50 [3]: 1790 nM

SMILES: O=c1cc2n(-c3ccccc3)nc(-c3ccccc3)nc-2cc1N1CCCCC1
- IC50 [1]: 610 nM
- IC50 [2]: 1980 nM
- IC50 [3]: 1190 nM

SMILES: O=c1cc2n(-c3ccccc3)nc(-c3ccccc3)nc-2cc1N1CCOCC1
- IC50 [1]: 3210 nM
- IC50 [2]: 2370 nM
- IC50 [3]: 2290 nM

SMILES: O=c1cc2n(-c3ccccc3)nc(-c3ccccc3)nc-2cc1N1CCSCC1
- IC50 [1]: 1220 nM
- IC50 [2]: 970 nM
- IC50 [3]: 1630 nM

SMILES: CCNc1cc2nc(-c3ccccc3)nn(-c3ccccc3)c-2cc1=O
- IC50 [1]: 220 nM
- IC50 [2]: 1620 nM
- IC50 [3]: 240 nM

SMILES: CCOc1cc2nc(-c3ccccc3)nn(-c3ccccc3)c-2cc1=O
- IC50 [1]: > 5000 nM
- IC50 [2]: > 5000 nM
- IC50 [3]: > 5000 nM

SMILES: CC(=O)Nc1cc2nc(-c3ccccc3)nn(-c3ccccc3)c-2cc1=O
- IC50 [1]: > 5000 nM
- IC50 [2]: > 5000 nM
- IC50 [3]: > 5000 nM

SMILES: Nc1cc2nc(-c3ccccc3)nn(-c3ccccc3)c-2cc1=O
- IC50 [1]: 1830 nM
- IC50 [2]: 950 nM
- IC50 [3]: 2040 nM

SMILES: C[C@@H]1CO[C@@H]2C3=C(C(=O)C=CC3=O)[C@H]3OC(=O)[C@@H]4CC[C@H]5C1CC[C@@]25[C@@H]34
- IC50 [1]: 430 nM
- IC50 [2]: 280 nM
- IC50 [4]: 170 nM
- Ki [5]: 280 nM
- IC50 [3]: 510 nM

SMILES: CNc1cc2nc(-c3ccccc3)nn(-c3ccccc3)c-2cc1=O
- IC50 [1]: 980 nM
- IC50 [2]: 690 nM
- IC50 [3]: 930 nM
